Test results published in PubChem BioAssay (NCI).
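Growth conditions: 96-well plates. Treatment: test compound, 48 hours, 5 concentrations. Analysis: linear interpolation between bracketing concentrations; unreached endpoints set to highest concentration. GI50 is the concentration that inhibits growth by half. TGI denotes the concentration required for complete inhibition of growth.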 Where a SMILES comes first, the peptide text is derived from it. [ ]: non-standard residue; d: D form. The star is where a group is joined. X13 = OC[C@H](CC1CCCCC1)N*; dIva = CC[C@@](C)(N)C(=O)O; Aib = CC(C)(N)C(=O)O

Key:
Assay in all cases: growth of human tumour cells (NCI), 48 h
A498 renal = test system: A498 renal
A549 NSCLC = test system: A549 NSCLC
ACHN renal = test system: ACHN renal
CCRF-CEM leukemia = test system: CCRF-CEM leukemia
COLO 205 colon = test system: COLO 205 colon
EKVX NSCLC = test system: EKVX NSCLC
HCC-2998 colon = test system: HCC-2998 colon
HCT-15 colon = test system: HCT-15 colon
HL-60(TB) leukemia = test system: HL-60(TB) leukemia
HOP-62 NSCLC = test system: HOP-62 NSCLC
HOP-92 NSCLC = test system: HOP-92 NSCLC
HS 578T breast = test system: HS 578T breast
HT29 colon = test system: HT29 colon
IGROV1 ovarian = test system: IGROV1 ovarian
K-562 leukemia = test system: K-562 leukemia
KM12 colon = test system: KM12 colon
LOX IMVI melanoma = test system: LOX IMVI melanoma
MALME-3M melanoma = test system: MALME-3M melanoma
MCF7 breast = test system: MCF7 breast
MDA-MB-231 breast = test system: MDA-MB-231 breast
MDA-MB-435 = test system: MDA-MB-435
MOLT-4 leukemia = test system: MOLT-4 leukemia
NCI-H226 lung = test system: NCI-H226 lung
NCI-H23 lung = test system: NCI-H23 lung
NCI-H460 lung = test system: NCI-H460 lung
NCI-H522 lung = test system: NCI-H522 lung
NCI/ADR-RES ovarian = test system: NCI/ADR-RES ovarian
OVCAR-3 ovarian = test system: OVCAR-3 ovarian
OVCAR-4 ovarian = test system: OVCAR-4 ovarian
OVCAR-5 ovarian = test system: OVCAR-5 ovarian
OVCAR-8 ovarian = test system: OVCAR-8 ovarian
PC-3 prostate = test system: PC-3 prostate
RPMI-8226 leukemia = test system: RPMI-8226 leukemia
RXF 393 renal = test system: RXF 393 renal
SF-268 CNS = test system: SF-268 CNS
SF-295 CNS = test system: SF-295 CNS
SF-539 CNS = test system: SF-539 CNS
SK-MEL-2 melanoma = test system: SK-MEL-2 melanoma
SK-MEL-28 melanoma = test system: SK-MEL-28 melanoma
SK-MEL-5 melanoma = test system: SK-MEL-5 melanoma
SK-OV-3 ovarian = test system: SK-OV-3 ovarian
SN12C renal = test system: SN12C renal
SNB-19 CNS = test system: SNB-19 CNS
SNB-75 CNS = test system: SNB-75 CNS
SR leukemia = test system: SR leukemia
SW-620 colon = test system: SW-620 colon
T-47D breast = test system: T-47D breast
TK-10 renal = test system: TK-10 renal
U251 CNS = test system: U251 CNS
UACC-257 melanoma = test system: UACC-257 melanoma
UACC-62 melanoma = test system: UACC-62 melanoma
UO-31 renal = test system: UO-31 renal

CC[C@@](C)(NC(=O)C(C)(C)NC(=O)[C@@H](NC(=O)[C@@H]1CCCN1C(=O)C(C)(C)NC(=O)[C@H](CC(C)C)NC(=O)CNC(=O)C(C)(C)NC(=O)[C@@H](NC(=O)C(C)(C)NC(=O)[C@H](CCC(N)=O)NC(=O)[C@H](C)NC(=O)C(C)(C)NC(=O)[C@H](C)NC(=O)C(C)(C)NC(=O)[C@H](C)NC(=O)C(C)(C)NC(C)=O)C(C)C)C(C)C)C(=O)N[C@@H](CCC(N)=O)C(=O)N[C@@H](CCC(N)=O)C(=O)N[C@H](CO)CC1CCCCC1 (Ac-[Aib]A[Aib]A[Aib]AQ[Aib]V[Aib]GL[Aib]PV[Aib][dIva]QQ-X13)
GI50 (A498 renal): 1.39 µM
TGI (A498 renal): > 5 µM
GI50 (A549 NSCLC): 3 µM
TGI (A549 NSCLC): > 5 µM
GI50 (ACHN renal): > 5 µM
TGI (ACHN renal): > 5 µM
GI50 (CCRF-CEM leukemia): 2.79 µM
TGI (CCRF-CEM leukemia): > 5 µM
GI50 (COLO 205 colon): 1.47 µM
TGI (COLO 205 colon): > 5 µM
GI50 (EKVX NSCLC): > 5 µM
TGI (EKVX NSCLC): > 5 µM
GI50 (HCC-2998 colon): 2.04 µM
TGI (HCC-2998 colon): > 5 µM
GI50 (HCT-15 colon): > 5 µM
TGI (HCT-15 colon): > 5 µM
GI50 (HL-60(TB) leukemia): 1.44 µM
TGI (HL-60(TB) leukemia): 4.02 µM
GI50 (HOP-62 NSCLC): > 5 µM
TGI (HOP-62 NSCLC): > 5 µM
GI50 (HOP-92 NSCLC): 0.854 µM
TGI (HOP-92 NSCLC): 3.38 µM
GI50 (HS 578T breast): 1.81 µM
TGI (HS 578T breast): > 5 µM
GI50 (HT29 colon): 2.25 µM
TGI (HT29 colon): > 5 µM
GI50 (IGROV1 ovarian): 2.65 µM
TGI (IGROV1 ovarian): > 5 µM
GI50 (K-562 leukemia): 1.78 µM
TGI (K-562 leukemia): > 5 µM
GI50 (KM12 colon): 1.89 µM
TGI (KM12 colon): > 5 µM
GI50 (LOX IMVI melanoma): 1.49 µM
TGI (LOX IMVI melanoma): > 5 µM
GI50 (MALME-3M melanoma): 1.18 µM
TGI (MALME-3M melanoma): 3.98 µM
GI50 (MCF7 breast): 0.281 µM
TGI (MCF7 breast): > 5 µM
GI50 (MDA-MB-231 breast): 1.53 µM
TGI (MDA-MB-231 breast): > 5 µM
GI50 (MDA-MB-435): 1.55 µM
TGI (MDA-MB-435): > 5 µM
GI50 (MOLT-4 leukemia): 2.65 µM
TGI (MOLT-4 leukemia): > 5 µM
GI50 (NCI-H226 lung): > 5 µM
TGI (NCI-H226 lung): > 5 µM
GI50 (NCI-H23 lung): 1.06 µM
TGI (NCI-H23 lung): > 5 µM
GI50 (NCI-H460 lung): 1.6 µM
TGI (NCI-H460 lung): > 5 µM
GI50 (NCI-H522 lung): 1.28 µM
TGI (NCI-H522 lung): > 5 µM
GI50 (NCI/ADR-RES ovarian): > 5 µM
TGI (NCI/ADR-RES ovarian): > 5 µM
GI50 (OVCAR-3 ovarian): 1.25 µM
TGI (OVCAR-3 ovarian): > 5 µM
GI50 (OVCAR-4 ovarian): 2.82 µM
TGI (OVCAR-4 ovarian): > 5 µM
GI50 (OVCAR-5 ovarian): 2.84 µM
TGI (OVCAR-5 ovarian): > 5 µM
GI50 (OVCAR-8 ovarian): > 5 µM
TGI (OVCAR-8 ovarian): > 5 µM
GI50 (PC-3 prostate): 1.32 µM
TGI (PC-3 prostate): > 5 µM
GI50 (RPMI-8226 leukemia): 0.198 µM
TGI (RPMI-8226 leukemia): 1.87 µM
GI50 (RXF 393 renal): 1.75 µM
TGI (RXF 393 renal): > 5 µM
GI50 (SF-268 CNS): 1.74 µM
TGI (SF-268 CNS): > 5 µM
GI50 (SF-295 CNS): > 5 µM
TGI (SF-295 CNS): > 5 µM
GI50 (SF-539 CNS): 1.49 µM
TGI (SF-539 CNS): > 5 µM
GI50 (SK-MEL-2 melanoma): 1.22 µM
TGI (SK-MEL-2 melanoma): 3.83 µM
GI50 (SK-MEL-28 melanoma): 2.04 µM
TGI (SK-MEL-28 melanoma): > 5 µM
GI50 (SK-MEL-5 melanoma): 1.31 µM
TGI (SK-MEL-5 melanoma): 4.84 µM
GI50 (SK-OV-3 ovarian): 1.89 µM
TGI (SK-OV-3 ovarian): > 5 µM
GI50 (SN12C renal): 0.46 µM
TGI (SN12C renal): > 5 µM
GI50 (SNB-19 CNS): 1.38 µM
TGI (SNB-19 CNS): > 5 µM
GI50 (SNB-75 CNS): 1.24 µM
TGI (SNB-75 CNS): > 5 µM
GI50 (SR leukemia): 2.01 µM
TGI (SR leukemia): > 5 µM
GI50 (SW-620 colon): 3.65 µM
TGI (SW-620 colon): > 5 µM
GI50 (T-47D breast): 1.56 µM
TGI (T-47D breast): > 5 µM
GI50 (TK-10 renal): > 5 µM
TGI (TK-10 renal): > 5 µM
GI50 (U251 CNS): 1.49 µM
TGI (U251 CNS): > 5 µM
GI50 (UACC-257 melanoma): 1 µM
TGI (UACC-257 melanoma): 4.41 µM
GI50 (UACC-62 melanoma): 1.86 µM
TGI (UACC-62 melanoma): > 5 µM
GI50 (UO-31 renal): > 5 µM
TGI (UO-31 renal): > 5 µM
